Holding throughout (assay type): cell-based
One assay deals with T1, human TLR7 (Homo sapiens, UniProt Q9NYK1).
T1 construct: host or cells: HEK-Blue cells
T1 sequence (Q9NYK1 27-1049): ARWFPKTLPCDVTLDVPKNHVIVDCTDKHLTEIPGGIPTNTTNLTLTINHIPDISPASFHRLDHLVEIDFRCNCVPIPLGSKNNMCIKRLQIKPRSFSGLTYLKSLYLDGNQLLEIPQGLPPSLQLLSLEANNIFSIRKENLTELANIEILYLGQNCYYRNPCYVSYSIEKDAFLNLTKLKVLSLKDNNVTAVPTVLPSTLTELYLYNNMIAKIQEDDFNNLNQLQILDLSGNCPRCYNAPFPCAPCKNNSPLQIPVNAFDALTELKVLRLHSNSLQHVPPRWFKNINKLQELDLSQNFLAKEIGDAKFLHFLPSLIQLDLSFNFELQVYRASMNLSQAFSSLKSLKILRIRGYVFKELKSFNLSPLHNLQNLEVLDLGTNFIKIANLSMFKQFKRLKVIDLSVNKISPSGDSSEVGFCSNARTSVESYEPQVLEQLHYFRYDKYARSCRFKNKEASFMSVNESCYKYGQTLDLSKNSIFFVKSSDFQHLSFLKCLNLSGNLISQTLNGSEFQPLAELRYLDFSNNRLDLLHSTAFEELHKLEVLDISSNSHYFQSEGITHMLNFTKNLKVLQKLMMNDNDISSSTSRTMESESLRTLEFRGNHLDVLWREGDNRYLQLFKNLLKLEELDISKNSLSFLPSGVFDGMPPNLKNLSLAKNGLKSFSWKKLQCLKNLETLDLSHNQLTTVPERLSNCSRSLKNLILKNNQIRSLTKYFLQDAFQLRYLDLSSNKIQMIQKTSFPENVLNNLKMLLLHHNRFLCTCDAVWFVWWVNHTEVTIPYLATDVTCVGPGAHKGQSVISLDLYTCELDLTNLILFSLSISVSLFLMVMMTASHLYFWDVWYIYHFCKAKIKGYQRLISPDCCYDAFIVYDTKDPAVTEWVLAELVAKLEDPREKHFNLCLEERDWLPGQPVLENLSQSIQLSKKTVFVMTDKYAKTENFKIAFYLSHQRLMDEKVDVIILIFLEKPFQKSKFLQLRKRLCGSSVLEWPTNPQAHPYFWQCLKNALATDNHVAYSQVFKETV
Kind of assay: TLR7 inhibition reporter assay (HEK-Blue, SEAP). The following applies: HEK-Blue cells overexpressing human TLR7, gardiquimod 7.5 μM, 22 hour incubation. An outline of the steps: (§1)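 Screening used HEK-Blue cells overexpressing one human TLR (7, 8 or 9) and an IFN-β minimal promoter–NF-κB/AP-1 SEAP construct. Stimulation lasted 22 h at 37 °C with receptor-specific agonist: gardiquimod, R848 or ODN2006 at 7.5 μM, 15.9 μM and 5 nM.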
A general note: In a reporter assay the amount or activity of a reporter protein is the signal.

A further assay concerns the target T2, human TLR8 (Homo sapiens, UniProt Q9NR97).
T2 construct: host or cells: HEK-Blue cells
T2 sequence (Q9NR97 27-1041): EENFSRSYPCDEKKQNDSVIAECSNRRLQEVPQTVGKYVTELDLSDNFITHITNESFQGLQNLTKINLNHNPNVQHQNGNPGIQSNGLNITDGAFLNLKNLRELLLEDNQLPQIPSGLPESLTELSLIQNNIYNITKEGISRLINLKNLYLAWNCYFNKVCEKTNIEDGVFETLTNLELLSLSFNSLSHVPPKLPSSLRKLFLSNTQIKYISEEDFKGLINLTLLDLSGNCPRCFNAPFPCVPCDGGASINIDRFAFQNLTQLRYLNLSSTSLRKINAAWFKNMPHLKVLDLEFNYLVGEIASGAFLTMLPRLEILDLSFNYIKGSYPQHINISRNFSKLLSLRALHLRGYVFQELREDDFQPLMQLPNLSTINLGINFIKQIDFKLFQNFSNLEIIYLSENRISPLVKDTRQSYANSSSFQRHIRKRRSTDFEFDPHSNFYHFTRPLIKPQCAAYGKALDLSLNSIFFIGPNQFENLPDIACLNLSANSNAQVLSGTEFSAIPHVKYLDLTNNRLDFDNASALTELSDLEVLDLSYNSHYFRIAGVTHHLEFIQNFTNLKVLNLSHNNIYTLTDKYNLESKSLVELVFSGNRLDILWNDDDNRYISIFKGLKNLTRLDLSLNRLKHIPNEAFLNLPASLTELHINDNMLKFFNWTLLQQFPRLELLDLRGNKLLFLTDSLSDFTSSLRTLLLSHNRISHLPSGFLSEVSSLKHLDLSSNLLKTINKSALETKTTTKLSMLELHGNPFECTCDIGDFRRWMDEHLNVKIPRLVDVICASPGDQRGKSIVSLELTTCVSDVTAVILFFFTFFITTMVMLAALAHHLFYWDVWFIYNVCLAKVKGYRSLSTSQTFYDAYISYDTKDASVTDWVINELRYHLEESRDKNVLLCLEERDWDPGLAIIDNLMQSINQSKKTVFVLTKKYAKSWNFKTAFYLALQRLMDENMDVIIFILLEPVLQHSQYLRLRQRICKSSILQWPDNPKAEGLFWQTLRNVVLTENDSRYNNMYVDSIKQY
Kind of assay: TLR8 inhibition reporter assay (HEK-Blue, SEAP). The following applies: HEK-Blue cells overexpressing human TLR8, R848 15.9 μM, 22 hour incubation. In a few lines:
as §1

A further assay deals with T3, human TLR9 (Homo sapiens, UniProt Q9NR96).
T3 construct: host or cells: HEK-Blue cells
T3 sequence (Q9NR96 26-1032): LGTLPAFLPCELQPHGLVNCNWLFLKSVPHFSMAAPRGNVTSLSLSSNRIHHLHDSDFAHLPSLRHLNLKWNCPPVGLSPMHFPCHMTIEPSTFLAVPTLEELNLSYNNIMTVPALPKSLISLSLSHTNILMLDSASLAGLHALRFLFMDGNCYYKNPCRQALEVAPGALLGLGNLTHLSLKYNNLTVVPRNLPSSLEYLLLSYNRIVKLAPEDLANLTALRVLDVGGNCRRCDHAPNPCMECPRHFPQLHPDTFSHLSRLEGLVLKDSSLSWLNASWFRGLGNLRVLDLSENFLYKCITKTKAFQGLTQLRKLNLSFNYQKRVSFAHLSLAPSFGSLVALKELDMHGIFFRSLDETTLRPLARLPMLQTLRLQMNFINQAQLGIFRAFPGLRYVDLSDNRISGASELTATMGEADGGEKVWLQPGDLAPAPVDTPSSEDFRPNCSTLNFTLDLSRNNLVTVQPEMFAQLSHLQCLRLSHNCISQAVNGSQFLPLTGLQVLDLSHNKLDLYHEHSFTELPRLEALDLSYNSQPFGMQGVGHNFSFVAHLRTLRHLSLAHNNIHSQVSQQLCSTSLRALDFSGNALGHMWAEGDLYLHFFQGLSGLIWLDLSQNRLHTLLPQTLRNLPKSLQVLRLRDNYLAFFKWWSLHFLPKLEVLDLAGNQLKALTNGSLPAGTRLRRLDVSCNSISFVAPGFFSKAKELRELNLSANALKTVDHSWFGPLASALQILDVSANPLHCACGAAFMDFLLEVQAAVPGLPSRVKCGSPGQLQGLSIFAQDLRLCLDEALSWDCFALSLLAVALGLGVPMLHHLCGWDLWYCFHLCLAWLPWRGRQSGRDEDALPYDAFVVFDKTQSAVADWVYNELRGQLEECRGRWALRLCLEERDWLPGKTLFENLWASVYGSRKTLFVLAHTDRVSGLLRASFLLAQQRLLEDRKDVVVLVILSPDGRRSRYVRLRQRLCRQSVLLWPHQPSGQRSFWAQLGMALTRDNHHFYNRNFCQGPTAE
Kind of assay: TLR9 inhibition reporter assay (HEK-Blue, SEAP). The conditions noted are these: HEK-Blue cells overexpressing human TLR9, ODN2006 5 nM, 22 hour incubation. In a few lines:
as §1

Usually IC50 stands for the concentration that gives 50% inhibition. In the case of `Cc1cc2nncn2cc1-c1[nH]c2ccc(C3CCN(C(=O)CN(C)C)CC3)cc2c1C(C)C` [Example 107, 2-(dimethylamino)-1-(4-(3-isopropyl-2-(7-methyl-[1,2,4]triazolo[4,3-a]pyridin-6-yl)-1H-indol-5-yl)piperidin-1-yl)ethan-1-one], the IC50 came out at 40.7 nM at human TLR7, 591 nM at human TLR8 and 918 nM on human TLR9.
For `Cc1c(-c2[nH]c3ccc(C4CCN(C(=O)CN(C)C)CC4)cc3c2C(C)C)ccc2nncn12` [Example 108, 2-(dimethylamino)-1-(4-(3-isopropyl-2-(5-methyl-[1,2,4]triazolo[4,3-a]pyridin-6-yl)-1H-indol-5-yl)piperidin-1-yl)ethan-1-one] the same measures were 78.7 nM, 30.4 nM and 216 nM.
Regarding `Cc1c(-c2[nH]c3ccc(C4CC(C)N(CC(=O)N(C)C)C(C)C4)cc3c2C(C)C)cn2cnnc2c1C` (stereo not drawn) [Example 112, 2-(4-(2-(7,8-dimethyl-[1,2,4]triazolo[4,3-a]pyridin-6-yl)-3-isopropyl-1H-indol-5-yl)-2,6-dimethylpiperidin-1-yl)-N,N-dimethylacetamide], the IC50 against human TLR7 turned out to be 20.6 nM; at human TLR8 it was 121 nM; on human TLR9, 7420 nM.
For the molecule `Cc1c(-c2[nH]c3ccc(C4CC(C)N(C5COC5)C(C)C4)cc3c2C(C)C)cn2cnnc2c1C` (stereo not drawn) [Example 115, 6-(5-(2,6-dimethyl-1-(oxetan-3-yl)piperidin-4-yl)-3-isopropyl-1H-indol-2-yl)-7,8-dimethyl-[1,2,4]triazolo[4,3-a]pyridine], the values for the IC50 at human TLR7, against human TLR8 and at human TLR9 were 5.6 nM, 29.7 nM and 14600 nM, respectively.
